{"source": "patent US20130345073A1", "about": "“USE OF ALPHA-2-MACROGLOBULIN FOR DETERMINING OSTEONECROSIS DISEASE STATUS AND FOR SCREENING THERAPEUTIC AGENTS FOR PREVENTING OR TREATING OSTEONECROSIS” (priority 2012, published 2013)", "key": {"[1]": {"system": "A2M gene expression in human umbilical vein endothelial cells (HUVEC)", "assay": "A2M gene expression in treated HUVEC cells (qPCR)", "type": "cell-based", "settings": "for effect on A2M overexpression induced by dexamethasone: combined with dexamethasone, PD98059 20 μM, withaferin 1 μM (FIG. 4D)", "source_text": "HUVECs were purchased from Lonza (Walkersville, Md., USA) and cultured in endothelial basal medium (EBM-2media (Lonza) supplemented with microvascular additives (excluding hydrocortisone): human endothelial growth factor, 5% fetal bovine serum (FBS), vascular endothelial growth factor, human fibroblast growth factor type B, R3 insulin-like growth factor 1, ascorbic acid, heparin and the appropriate antibiotics gentamicin and amphotericin B (as per the supplier's protocol). HUVECs cells were cultured to near confluence (80%), trypsinized and seeded on 6 wells plates (10^5 cells/well). After 24 h incubation, cells were treated with dexamethasone (0.25 to 1 mM, Sigma-Aldrich, St-Louis, Mo., USA) for different time periods (between 4h to 48h). For experiments relating to the signaling pathways, different inhibitors were used: PD98059 (20 μM, Sigma) a MAPK inhibitor; withaferin (1 μM, Tocris, Bristol, UK), an NFkB PI3K inhibitor, and thrombin (1.5 U/ml; Calbiochem, San Diego, Calif., USA) an NFkB agonist. After incubation cells were harvested and RNA extracted using Trisol® (Invitrogen, Burlington, ON, Canada). RNA were then reverse transcribed using high capacity RNA to cDNA kit (Applied biosystems, Carlsbad, Calif., USA). A2M expression levels were then determined by qPCR using Taqman probes and master mix (Applied Biosystems)\nFirst, a dose response curve of HUVEC cells treated 48h using different concentration of Dex (dexamethasone) (0.1 mM to 1 mM) was generated. […] Then, a time response curve (4h to 24h) of HUVEC cells treated with 1 mM dexamethasone was generated. […] The effect of dexamethasone, PD and whitaferin on A2M expression of HUVEC cells was also determined."}, "Wistar Kyoto rats": {"system": "Wistar Kyoto rats", "settings": "male, rat, in vivo, 6 months", "experimental": "(§1) Experimental animals and their maintenance. Forty Wistar Kyoto (WKY) rats (ages 4 weeks old) were purchased from Charles River Laboratories (Pointe-Claire, QC, Canada). The rats were tagged and housed in plastic cages (2 to 4 animals per cage) under standard laboratory conditions with a 12-hour dark/12-hour light cycle, a constant temperature of 20° C., and humidity of 48%. Food and water were provided ad libitum with a standard rodent diet. The weight of the rats were followed before and after the implant of a prednisone pellet for the first 3 consecutive weeks and then every month until the end of the experiment. All experiments were conducted under an animal protocol approved by the McGill Animal Care Department.\nSlow-release prednisone pellets (Innovative Research of America, Sarasota Florida, USA) were implanted subcutaneously into 24 Wistar Kyoto rats (12 males and 12 females rats) at the age of 5 weeks. […]\nThe rats were sacrificed with an overdose of ketamine/xylazine at the age of 30 weeks. […] Tissue samples were sectioned parasagitally with a rotary microtome at 4 to 5 microns thickness, stained with hematoxylin and eosin and evaluated by light microscopy.\nThe tissue samples were analyzed in a blinded fashion by two experienced bone pathologists. […]"}, "[2]": {"system": "Fisher and Wistar Kyoto (WK) rats", "settings": "rat, in vivo", "experimental": "as §1, with “Eighteen Wistar” for “Experimental animals and their maintenance. Forty Wistar”, “(ages 12-16 weeks old) and eighteen Fisher (ages 12-16” for “(ages 4”\nSlow-release prednisone pellets (Innovative Research of America, Sarasota Florida, USA) were implanted subcutaneously into 12 Wistar Kyoto rats (all males) and 12 Fisher rats (all males) at the age of 8-12 weeks. Each pellet was implanted underneath the skin on the lateral side of the neck by surgically making an incision and developing a pocket about 2 cm beyond the incision site. The pellet was placed in the pocket and the incision was sutured. Based on the manufacturer's instructions the pellet releases a constant dose of the drug subcutaneously. To maintain a constant dosage during the 6 month period of the experiment, second and third pellet implantations were performed using the same procedure at 2 and 3 months respectively. The average dose release from the pellet was equivalent to 1.5 mg/kg/day for the period of 6 months. The dose of corticosteroids and the duration of treatment were chosen based on clinical experience. For the control group, 6 age-matched Wistar Kyoto (all males) and 6 age-matched Fisher (all males) rats received placebo pellets (Innovative Research of America) introduced through the same surgical technique.\nThe rats were sacrificed with an overdose of ketamine/xylazine at the age of 32-36 weeks. Tissue samples were obtained from the proximal femur containing the femoral head. Some samples were put in RNALater™ (QIAGEN Inc., Mississauga, ON, Canada) for RNA extraction and some samples were fixed for histological examination. Bone samples were fixed in 10% neutral buffered formalin, then decalcified in 4% ethylenediamine tetraacetic acid (pH 7.2) (Sigma-Aldrich, St. Louis, Mo., USA). The specimens were processed routinely and embedded in paraffin. Tissue samples were sectioned parasagitally with a rotary microtome at 4 to 5 microns thickness, stained with hematoxylin and eosin and evaluated by light microscopy.\nThe tissue samples were analyzed in a blinded fashion by two experienced bone pathologists. […] While the development of ON proceeds through various clinically identifiable stages, it was preferable for this study to detect early as well as the late stages of the condition. With this objective in mind, the criteria of Arlet [Arlet, 1993] was adopted namely degeneration, necrosis, and disappearance of marrow cells as well as the nuclear disappearance and hypochromasia of trabecular osteocytes as early signs of ON [Arlet, 1993]. Early signs of ON was also considered when apoptosis occurred in the osteocytes and osteoblasts. Positivity for apoptosis was defined by the authors as more than three osteocytes and/or osteoblasts recognized in a high magnification field based on previous studies [Weinstein et al, 2000; Shibahara et al., 2000].\nTerminal dexoynucleotidyl transferase (TdT) mediated deoxyuridine triphosphate biotin nick end labeling (TUNEL) was used to detect fragmented DNA known to be associated with apoptotic cell death. TUNEL assay on paraffin-embedded tissue sections was performed with the DeadEnd™ Colorimetric TUNEL System (Promega, Madison, Wis., USA) as recommended by the manufacturer. […]"}, "[3]": {"system": "Fisher and Wistar Kyoto (WK) rats", "assay": "Alpha-2-Macroglobulin (A2M) level in the blood by rat A2M ELISA", "type": "in vivo", "text": "Slow-release prednisone pellets (Innovative Research of America, Sarasota Florida, USA) were implanted subcutaneously into 12 Wistar Kyoto rats (all males) and 12 Fisher rats (all males) at the age of 8-12 weeks. Each pellet was implanted underneath the skin on the lateral side of the neck by surgically making an incision and developing a pocket about 2 cm beyond the incision site. The pellet was placed in the pocket and the incision was sutured. Based on the manufacturer's instructions the pellet releases a constant dose of the drug subcutaneously. To maintain a constant dosage during the 6 month period of the experiment, second and third pellet implantations were performed using the same procedure at 2 and 3 months respectively. The average dose release from the pellet was equivalent to 1.5 mg/kg/day for the period of 6 months. The dose of corticosteroids and the duration of treatment were chosen based on clinical experience. For the control group, 6 age-matched Wistar Kyoto (all males) and 6 age-matched Fisher (all males) rats received placebo pellets (Innovative Research of America) introduced through the same surgical technique. All rats were weighed upon their entry into the animal facility and were then weighed on a weekly basis until the end of the experimental period. Serum glucose measurements were performed at 2 week intervals via saphenous venipuncture using a portable glucometer (ContourTM glucometer, Bayer). Furthermore, 1 ml of whole blood was collected from each animal once a month via sublingual venipuncture under general anesthesia following a previously described technique. Following venipuncture, the blood was transferred to standard EDTA tubes, centrifuged for 8 minutes at 3600 rpm and the serum was separated and initially stored at -20° Celsius. Monthly serum […] concentrations were determined using a Rat Alpha 2-Marcoglobulin Enzyme Linked Immunoassay (ELISA) (Kamiya Biomedical Company, Seattle, USA) according to the manufacturer's instructions. This measurement was performed by an author blinded to treatment allocation. Fisher and Wistar Kyoto (WK) rats received steroid/placebo treatment for 5 and 6 months, respectively and blood was collected monthly. The Alpha-2-Macroglobulin […]) level in the blood was detected using rat […] ELISA kit (Immunology Consultants Laboratory, USA). Rats were divided into groups based on the treatment as well as the results from histopathology and TUNEL evaluation. AVN(+) was judged to be either TUNEL (+) or (++), or AVN(-) by histopathology study on at least one hip. […] However, as shown on FIG. 3C, the […] level in the blood of steroid-treated Fisher rats (only those considered AVN(+)) increased at 2 months after steroid treatment, and they were consider AVN(+). […]"}, "Fisher and WK rats": {"system": "Fisher and WK rats", "assay": "Micro-computerized tomography scanning of femoral head cross-sections", "type": "in vivo, rat", "experimental": "At the conclusion of the 180 day experimental period, all prednisone and placebo animals were euthanized via brief isoflurane exposure followed by cardiac puncture. Immediately following euthanasia, both femurs in each animal were dissected, with care taken to preserve the integrity of the femoral cartilage during hip disarticulation. The femurs were then osteotomized at the mid-diaphysis and the proximal portion was immersed initially in 4% paraformaldehyde for 24 hours, washed with sterile phosphate buffered saline (PBS) for the following 48 hours, and then preserved in PBS at −5° Celsius.\nMicro computed-tomography (μCT) scanning was performed on each harvested femur using a Skyscan1172 instrument equipped with a 1.3 Mp camera (Skyscan, Kontich, Belgium). […] 2-dimensional serial cross sections were assembled into 3D reconstructions and analyzed using Skyscan™ software (CTAn version 2.0.0.1) supplied with the instrument. […]\nIn the present example, an analysis of the epiphyseal trabecular bone adjacent to the subchondral plate was performed. […] This shape permitted the largest area of epiphyseal bone to be measured without artefact from the adjacent rodent growth plate or cortical cap. […]\nFour widely utilized morphometric indices measuring bone volume and bone connectivity were measured from the binarized 3-dimensional volume of interest. […] Total bone porosity (TBP) was also measured. […]"}, "[4]": {"system": "Fisher and Wistar Kyoto (WK) rats", "settings": "male, rat, in vivo, 5 months"}}, "note": "Like-named read-outs stand apart in the source and are kept apart here."}
{"smiles": "COc1cccc(-c2cc(=O)c3ccccc3o2)c1N", "note": "[PD, PD98059]", "values": [{"measurement": "effect on A2M overexpression induced by dexamethasone", "setting": "[1]; HUVEC", "result": "repression of A2M gene expression"}]}
{"smiles": "C[C@]12C=CC(=O)C=C1CC[C@@H]1[C@@H]2C(=O)C[C@@]2(C)[C@H]1CC[C@]2(O)C(=O)CO", "note": "[Prednisone, prednisone]", "values": [{"measurement": "incidence of the disease (ON)", "setting": "Wistar Kyoto rats", "result": "up to 75%"}, {"measurement": "Total TUNEL(++) hips", "setting": "[2]; male, Wistar Kyoto, 6 months", "result": 9}, {"measurement": "Total TUNEL(−) hips", "setting": "[2]; male, Wistar Kyoto, 6 months", "result": 1}, {"measurement": "number of hips AVN(+) TUNEL(−)", "setting": "[2]; male, Wistar Kyoto, 6 months", "result": 1}, {"measurement": "number of hips AVN(−) TUNEL(+)", "setting": "[2]; male, Wistar Kyoto, 6 months", "result": 1}, {"measurement": "number of hips AVN(−) TUNEL(++)", "setting": "[2]; male, Wistar Kyoto, 6 months", "result": 2}, {"measurement": "apoptosis (TUNEL positive cells) in bilateral femora", "setting": "[2]", "result": "more profound"}, {"measurement": "A2M level in the blood", "setting": "[3]; Fisher rats, 5 months after the beginning of the steroid treatment (FIG. 3E)", "result": "declined"}, {"measurement": "A2M level in the blood", "setting": "[3]; steroid-treated Fisher rats AVN(+), at 2 months after steroid treatment (FIG. 3C)", "result": "increased"}, {"measurement": "time of peak A2M level in the blood after the beginning of the treatment", "setting": "[3]; steroid-treated WK rats, all AVN(+) (FIG. 3D)", "result": 3, "unit": "month"}, {"measurement": "A2M level in the blood", "setting": "[3]; steroid-treated WK rats, at least 6 months after the beginning of the treatment (FIG. 3E)", "result": "remained higher than placebo-treated group"}, {"measurement": "micro-CT findings of femoral head", "setting": "Fisher and WK rats; Fisher rats following steroid administration (FIG. 5A)", "result": "no articular erosion"}, {"measurement": "rats with subchondral porosity, small and erratic trabeculae and isotropic trabecular arrangement", "setting": "Fisher and WK rats; steroid-treated WK rats (FIG. 5B)", "result": "9 out of 12"}, {"measurement": "Total TUNEL(++) hips", "setting": "[4]", "result": 7}, {"measurement": "Total TUNEL(−) hips", "setting": "[4]", "result": 2}, {"measurement": "number of hips AVN(+) TUNEL(−)", "setting": "[4]", "result": 1}]}
{"smiles": "C[C@@H]1C[C@H]2[C@@H]3CCC4=CC(=O)C=C[C@]4(C)[C@@]3(F)[C@@H](O)C[C@]2(C)[C@@]1(O)C(=O)CO", "note": "[dexamethasone]", "values": [{"measurement": "concentration of maximum effect on A2M expression", "setting": "[1]; HUVEC treated 48h, dose response 0.1 mM to 1 mM (FIG. 4A)", "result": 0.5, "unit": "mM"}, {"measurement": "time of maximum effect on A2M expression", "setting": "[1]; HUVEC, 1 mM dexamethasone, time response 4h to 24h (FIG. 4B)", "result": 24, "unit": "h"}]}
{"smiles": "CC1=C(CO)C(=O)O[C@@H]([C@@H](C)[C@H]2CC[C@H]3[C@@H]4C[C@H]5O[C@]56[C@@H](O)C=CC(=O)[C@]6(C)[C@H]4CC[C@]23C)C1", "note": "[whitaferin, withaferin]", "values": [{"measurement": "effect on A2M overexpression induced by dexamethasone", "setting": "[1]; HUVEC", "result": "repression of A2M gene expression"}]}
